Columns and labels:
[1] = Photophysical measurements of the lanthanide complexes (absorption, emission, brightness, lifetime); format: physicochemical
[2] = Solubility in H2O (biological and buffer media); format: physicochemical; details: for Solubility in H2O: yes/no

SMILES	Absorption λmax [1] [nm]	Solubility in water (biological and buffer media) [2]	Solubility in H2O [2]	Brightness ε × Φ (H2O) ([1]; in H2O)	Lifetime τH2O ([1]; in H2O) [ms]
COC(=O)COc1ccc(C#Cc2cc3nc(c2)CN(CC(=O)O)Cc2cc(C#Cc4ccc(OCC(=O)OC)cc4)cc(n2)CN(CC(=O)O)Cc2cc(C#Cc4ccc(OCCCN)cc4)cc(n2)CN(CC(=O)O)C3)cc1 [Complex 62]	320	insoluble in water	no		
COC(=O)COc1cc(OC)c(-c2cc3nc(c2)CN(CC(=O)O)Cc2cc(-c4c(OC)cc(OCC(=O)OC)cc4OC)cc(n2)CN(CC(=O)O)Cc2cc(-c4ccc(OCCCN)cc4)cc(n2)CN(CC(=O)O)C3)c(OC)c1 [Complex 63]	328	insoluble in water	no		
O=C(O)CN1Cc2cccc(n2)CN(CC(=O)O)Cc2cccc(n2)CN(CC(=O)O)Cc2cccc(n2)C1 [Pyridinophane]	267	soluble in water	yes	564	0.78
